The target in the experiment is Caspase 1 (CASP1) (Homo sapiens, UniProt P29466). Briefly: live-cell GFP caspase-1. Format: cell-based.
Caspase 1 (CASP1), sequence (P29466 whole entry): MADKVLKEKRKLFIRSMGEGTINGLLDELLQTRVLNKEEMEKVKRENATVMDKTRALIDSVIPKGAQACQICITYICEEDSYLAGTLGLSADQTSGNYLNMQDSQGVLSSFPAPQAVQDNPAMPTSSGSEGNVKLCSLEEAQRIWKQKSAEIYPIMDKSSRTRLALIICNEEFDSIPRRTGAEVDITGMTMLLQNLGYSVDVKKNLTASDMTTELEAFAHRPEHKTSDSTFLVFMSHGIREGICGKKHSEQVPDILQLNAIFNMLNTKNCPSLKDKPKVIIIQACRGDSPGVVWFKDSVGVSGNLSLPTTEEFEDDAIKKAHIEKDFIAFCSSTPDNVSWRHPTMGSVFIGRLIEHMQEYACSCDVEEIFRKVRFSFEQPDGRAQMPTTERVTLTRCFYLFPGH
Caspase 1 (CASP1), sequence (Q96P20 whole entry R262W partner): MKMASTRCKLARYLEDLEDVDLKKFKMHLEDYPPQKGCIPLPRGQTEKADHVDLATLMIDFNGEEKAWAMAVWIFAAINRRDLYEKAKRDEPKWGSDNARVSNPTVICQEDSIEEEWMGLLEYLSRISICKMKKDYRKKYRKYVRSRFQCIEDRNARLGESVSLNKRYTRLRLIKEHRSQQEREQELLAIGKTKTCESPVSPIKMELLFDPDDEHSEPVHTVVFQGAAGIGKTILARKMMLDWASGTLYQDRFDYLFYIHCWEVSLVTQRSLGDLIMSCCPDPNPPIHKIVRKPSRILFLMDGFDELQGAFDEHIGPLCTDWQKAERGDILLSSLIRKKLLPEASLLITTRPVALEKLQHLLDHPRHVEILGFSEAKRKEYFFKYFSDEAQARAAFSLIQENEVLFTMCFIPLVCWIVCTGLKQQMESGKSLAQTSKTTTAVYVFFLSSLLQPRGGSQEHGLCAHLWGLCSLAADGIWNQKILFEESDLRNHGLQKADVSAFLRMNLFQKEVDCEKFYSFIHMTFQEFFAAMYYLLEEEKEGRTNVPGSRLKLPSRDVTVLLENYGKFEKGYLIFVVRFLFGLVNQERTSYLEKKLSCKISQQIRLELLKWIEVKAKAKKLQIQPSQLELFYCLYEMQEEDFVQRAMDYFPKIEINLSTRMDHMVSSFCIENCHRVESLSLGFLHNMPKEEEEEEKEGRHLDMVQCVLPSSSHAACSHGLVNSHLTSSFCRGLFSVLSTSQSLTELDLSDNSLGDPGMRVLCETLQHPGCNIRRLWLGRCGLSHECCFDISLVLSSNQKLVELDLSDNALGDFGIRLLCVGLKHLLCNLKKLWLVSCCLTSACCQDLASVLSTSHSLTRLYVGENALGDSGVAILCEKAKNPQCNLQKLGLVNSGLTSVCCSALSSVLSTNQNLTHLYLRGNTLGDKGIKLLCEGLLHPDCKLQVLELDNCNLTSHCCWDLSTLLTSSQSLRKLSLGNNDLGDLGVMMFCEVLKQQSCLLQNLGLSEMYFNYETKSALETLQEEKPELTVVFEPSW
Caspase 1 (CASP1), sequence (Q9ULZ3 whole entry partner): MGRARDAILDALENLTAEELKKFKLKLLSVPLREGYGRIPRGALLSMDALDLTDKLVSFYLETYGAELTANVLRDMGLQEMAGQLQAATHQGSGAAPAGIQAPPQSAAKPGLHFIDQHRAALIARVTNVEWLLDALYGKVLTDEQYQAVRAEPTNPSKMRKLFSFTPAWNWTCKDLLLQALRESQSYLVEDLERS

Turning to `CC(C)(C)[C@H](NC(=O)c1ccc(N)c(Cl)c1)C(=O)N1CCC[C@H]1C(=O)N[C@H](C=O)CC(=O)O` [VRT-043198], inhibition was half-maximal at 4.66 µM (IC50).

The IC50 is the midpoint of a concentration-inhibition curve.

The record behind these values is article PMC8865862 (Journal of Inflammation Research, 2022).
